# In article PMC9862026, “In Vivo Toxicity, Redox-Modulating Capacity and Intestinal Permeability of Novel Aroylhydrazone Derivatives as Anti-Tuberculosis Agents” (Pharmaceutics, 2022):
# “Also recorded” adds a separate entry of the source. Where two headings read alike, the source gives them in different places. Marks after values point to notes of the source that are not given here.
# Assays:
# female Jcl:ICR mice [1] = system: female Jcl:ICR mice
# male Jcl:ICR mice [2] = assay: Sub-acute toxicity, 14 days oral: complete blood count; type: in vivo
# Experimental: (§1) The sub-acute toxicity effects were assessed after repeated (14 days) oral administration to male mice. […] The experiments were performed with male Jcl: ICR mice at the same age of 6 weeks and weighing approximately 30–35 g, in which the substances were administered daily for 14 days orally with a gastric tube at approximately the same time of the day. The compounds were solubilized with Tween 80 (0.1%) in distilled water and administered orally in a volume of 0.1 mL per 10.0 g. Animals were observed daily for behavioral changes and signs of toxicity. All results were compared with the positive control isoniazid (INH).
# (§2) Serum biochemical parameters were assessed as follows.
# male Jcl:ICR mice [3] = assay: Sub-acute toxicity, 14 days oral: serum biochemical parameters; type: in vivo; conditions: serum
# Experimental: as §1, §2
# [4] = system: GSH in the liver homogenate; assay: Total glutathione in liver homogenate; type: in vivo, mice; conditions: both doses (125 and 250 mg/kg) oral, 14 days
# Experimental: as §2
# According to Rahman et al. total glutathione (tGSH) concentration was determined. In the reaction between GSH and 5,5′-dithiobis-2-nitrobenzoic acid (DTNB), the rate of formation of colored substance, 5′-thio-2-nitrobenzoic acid (TNB), is proportional to the concentration of tGSH in the sample. The maximal absorption of colored TNB is at 412 nm. The concentration of tGSH was calculated using oxidized glutathione as a reference standard and was expressed as ng/mg protein.
# female Jcl:ICR mice [5] = conditions: i.p.; for Lethality: female mice
# ABTS•+ assay = conditions: 15 min at 37 °C
# Experimental: ABTS (2,2′-azino-bis (3-ethylbenzthiazoline-6-sulphonic acid) (7.0 mM) was mixed with potassium persulfate (2.45 mM) to obtain the cationic radical (ABTS•+) The solution was diluted in methanol (2 mL ABTS•+ + 58 mL methanol). The absorption at 743 nm of the resulting working solution was 1.1 ± 0.02 AU. Then, 1.425 mL of ABTS•+ working solution was added to 75 μL of the test drugs, and the absorption at 743 nm was measured after 15 min of incubation at 37 °C against methanol. A blank containing 75 μL of water instead of the test extract also was measured against methanol.
# (§3) All data are presented as IC50, which gave 50% inhibition of the activities and compared against the activity of Trolox—a common antioxidant, at the same concentrations.
# [6] = system: MDA in the liver homogenate; assay: Endogenous MDA (spontaneous lipid peroxidation) in liver homogenate; conditions: both doses (125 and 250 mg/kg) oral, 14 days
# Experimental: On day 14, the animals were anesthetized with ketamine/ xylazine and decapitated. […] Livers were taken to assess oxidative stress and antioxidant status in the study groups.
# For the in vivo experiments (spontaneous lipid peroxidation) the postnuclear homogenates of the liver (mg protein/mL) in 0.15 M KCl—10 mM potassium phosphate buffer, pH 7.2, were heated for 15 min at 100 °C in the presence of 40% TCA + 5N HCl + 2% thiobarbituric acid (2:1:2 v/v) for color developing. After cooling and centrifugation, the absorbance was read at 532 nm against dd H2O as blank. The values were expressed in nmoles malondialdehyde (MDA) per mg protein, with a molar extinction coefficient of 1.56 × 10^−5 M^−1cm^−1.
# male Jcl:ICR mice [7] = assay: Sub-acute toxicity, 14 days oral: body weight; type: in vivo; conditions: 125 mg/kg oral, end of 14-day period
# Experimental: as §1, §2
# [8] = system: M. tuberculosis H37Rv reference strain; conditions: cited from earlier work
# [9] = system: Glutathione peroxidase in the liver supernatant; assay: Glutathione peroxidase activity in liver supernatant; type: in vivo, mice; conditions: 125 and 250 mg/kg oral, 14 days; vs controls
# Experimental: as §2
# The Glutathione Peroxidase Cellular Activity Assay Kit (Cat. No. CGP1) and Glutathione Reductase Assay Kit (Cat. No. GRSA) were used to measure the activities of glutathione-related enzymes.
# DPPH assay = conditions: 0.1 mM DPPH in methanol, 30 min
# Experimental: DPPH (2,2′-diphenyl-1-picrylhydrazyl radical) assay analysis of pure compounds was conducted by the method described by Brand-Williams et al.. First, 500 μL of the test solutions were added to 500 μL of a freshly prepared solution of 0.1 mM DPPH in methanol and incubated in the dark for 30 min. Then the absorbance at 517 nm (A517) was measured against a mixture of DPPH solution and methanol (1:1) as a control.
# as §3
# HEK-293T = conditions: cited from earlier work
# in vivo = conditions: female, Jcl:ICR, mouse, po
structure (smiles),measurement,setting,value
"COc1cc(C=NNC(=O)c2snnc2C)ccc1O [3a, N′-[(4-hydroxy-3-methoxyphenyl)methylidene]-4-methyl-1,2,3-thiadiazole-5-carbohydrazide]",resorption index (IR) = LD50 i.p./LD50 p.os. × 100,female Jcl:ICR mice [1]; mice,≈ 49%; also recorded: ≈ 98%
same,Mortality,"female Jcl:ICR mice [1]; oral administration, highest dose of 3000 mg/kg",No mortality
same,HCT,male Jcl:ICR mice [2]; 125 mg/kg oral,37.2 ± 2.6 ^+ %
same,Hgb,male Jcl:ICR mice [2]; 125 mg/kg oral,127 ± 5.4 ^+ g/L
same,PLT,male Jcl:ICR mice [2]; 125 mg/kg oral,979 ± 238 10^9/L
same,RBC,male Jcl:ICR mice [2]; 125 mg/kg oral,6.84 ± 0.3 ^+ × 10^12/L
same,WBC,male Jcl:ICR mice [2]; 125 mg/kg oral,6.3 ± 0.36 ^+ × 10^9/L
same,HCT,male Jcl:ICR mice [2]; 250 mg/kg oral,38.2 ± 1.8 ^+ %
same,Hgb,male Jcl:ICR mice [2]; 250 mg/kg oral,129 ± 3.8 ^+ g/L
same,PLT,male Jcl:ICR mice [2]; 250 mg/kg oral,638 ± 181 10^9/L
same,RBC,male Jcl:ICR mice [2]; 250 mg/kg oral,6.97± 0.3 ^+ × 10^12/L
same,WBC,male Jcl:ICR mice [2]; 250 mg/kg oral,7.4 ± 0.44 *^+ × 10^9/L
same,CBC deviations from the reference values,male Jcl:ICR mice [2]; both doses (125 and 250 mg/kg) oral,no statistically significant deviations from the reference values
same,ALAT,male Jcl:ICR mice [3]; 125 mg/kg oral,62.2 ± 3.3 ^+ U/L
same,ALB,male Jcl:ICR mice [3]; 125 mg/kg oral,26.6 ± 2.2 ^+ g/L
same,ASAT,male Jcl:ICR mice [3]; 125 mg/kg oral,102 ± 3.6 ^+ U/L
same,CREAT,male Jcl:ICR mice [3]; 125 mg/kg oral,95.6 ± 6.6 ^+ µmol/L
same,D-Bil,male Jcl:ICR mice [3]; 125 mg/kg oral,3.4 ± 0.46 ^+ µmol/L
same,GLU,male Jcl:ICR mice [3]; 125 mg/kg oral,6.3 ± 0.36 mmol/L
same,T-Bil,male Jcl:ICR mice [3]; 125 mg/kg oral,7.6 ± 0.44 ^+ µmol/L
same,TP,male Jcl:ICR mice [3]; 125 mg/kg oral,54.3 ± 2.6 ^+ g/L
same,UA,male Jcl:ICR mice [3]; 125 mg/kg oral,163 ± 23.4 µmol/L
same,UREA,male Jcl:ICR mice [3]; 125 mg/kg oral,8.8 ± 0.28 ^+ mmol/L
same,ALAT,male Jcl:ICR mice [3]; 250 mg/kg oral,71.4 ± 3.4 *^+ U/L
same,ALB,male Jcl:ICR mice [3]; 250 mg/kg oral,27.3 ± 3.1 ^+ g/L
same,ASAT,male Jcl:ICR mice [3]; 250 mg/kg oral,113 ± 4.1 U/L
same,CREAT,male Jcl:ICR mice [3]; 250 mg/kg oral,86.4 ± 5.6 ^+ µmol/L
same,D-Bil,male Jcl:ICR mice [3]; 250 mg/kg oral,4.9 ± 0.34 ^+ µmol/L
same,GLU,male Jcl:ICR mice [3]; 250 mg/kg oral,7.1 ± 0.24 mmol/L
same,T-Bil,male Jcl:ICR mice [3]; 250 mg/kg oral,8.3 ± 0.28 ^+ µmol/L
same,TP,male Jcl:ICR mice [3]; 250 mg/kg oral,58.6 ± 3.6 ^+ g/L
same,UA,male Jcl:ICR mice [3]; 250 mg/kg oral,194 ± 17.7 µmol/L
same,UREA,male Jcl:ICR mice [3]; 250 mg/kg oral,11.5 ± 0.22 ^+ mmol/L
same,level of GSH in liver homogenate,[4],did not significantly increase the level of GSH
same,Lethality,female Jcl:ICR mice [5]; 500 mg/kg b.w.,0/3
same,Lethality,female Jcl:ICR mice [5]; 1000 mg/kg b.w.,0/3
same,Symptoms before Death Occur,female Jcl:ICR mice [5]; 1500 mg/kg b.w.,"Delayed reflexes, somnolence, lethal outcome"
same,Time of Occurrence of Fatal Outcome,female Jcl:ICR mice [5]; 1500 mg/kg b.w.,After 30 h
same,Symptoms before Death Occur,female Jcl:ICR mice [5]; 2000 mg/kg b.w.,"Impaired coordination, rapid breathing, lethal outcome"
same,Time of Occurrence of Fatal Outcome,female Jcl:ICR mice [5]; 2000 mg/kg b.w.,After 24 h
same,Symptoms before Death Occur,female Jcl:ICR mice [5]; 3000 mg/kg b.w.,"Respiratory failure with long pauses, ataxia, piloerection, seizures, lethal outcome"
same,Time of Occurrence of Fatal Outcome,female Jcl:ICR mice [5]; 3000 mg/kg b.w.,After 20 h
same,"ABTS Scavenging, IC50",ABTS•+ assay,89.47 * mg/mL
same,MDA content in the liver,[6],restoration of MDA to the control levels
same,Body weight gain compared to the beginning of the experimental period,male Jcl:ICR mice [7],41%
same,MIC,[8]; ref [23],0.0730 µM
same,activity of GPx in liver,[9],restored the control values of GPx; also recorded: did not statistically significantly alter
same,"DPPH Scavenging, IC50",DPPH assay,47.5 * mg/mL
same,IC50,HEK-293T,257 µM
same,LD50 at 14 days,in vivo,> 2500 mg/kg
"COc1ccc2[nH]cc(C=NNC(=O)c3ccco3)c2c1 [3b, N′-[(5-methoxy-1H-indol-3-yl)methylidene]furan-2-carbohydrazide]",HCT,male Jcl:ICR mice [2]; 125 mg/kg oral,39.6 ± 0.8 ^+ %
same,Hgb,male Jcl:ICR mice [2]; 125 mg/kg oral,132.2 ± 4.2 ^+ g/L
same,PLT,male Jcl:ICR mice [2]; 125 mg/kg oral,729 ± 203 10^9/L
same,RBC,male Jcl:ICR mice [2]; 125 mg/kg oral,7.21 ± 0.16 ^+ × 10^12/L
same,WBC,male Jcl:ICR mice [2]; 125 mg/kg oral,8.2 ± 0.28 *^+ × 10^9/L
same,HCT,male Jcl:ICR mice [2]; 250 mg/kg oral,40.1 ± 1.2 ^+ %
same,Hgb,male Jcl:ICR mice [2]; 250 mg/kg oral,130.2 ± 3.7 ^+ g/L
same,PLT,male Jcl:ICR mice [2]; 250 mg/kg oral,864 ± 212 10^9/L
same,RBC,male Jcl:ICR mice [2]; 250 mg/kg oral,7.62 ± 0.24 ^+ × 10^12/L
same,WBC,male Jcl:ICR mice [2]; 250 mg/kg oral,7.7 ± 0.33 *^+ × 10^9/L
same,ALAT,male Jcl:ICR mice [3]; 125 mg/kg oral,77.2 ± 2.8 *^+ U/L
same,ALB,male Jcl:ICR mice [3]; 125 mg/kg oral,28.5 ± 3.3 ^+ g/L
same,ASAT,male Jcl:ICR mice [3]; 125 mg/kg oral,112.1 ± 4.4 U/L
same,CREAT,male Jcl:ICR mice [3]; 125 mg/kg oral,88.2 ± 3.1 ^+ µmol/L
same,D-Bil,male Jcl:ICR mice [3]; 125 mg/kg oral,5.1 ± 0.23 ^+ µmol/L
same,GLU,male Jcl:ICR mice [3]; 125 mg/kg oral,6.8 ± 0.22 mmol/L
same,T-Bil,male Jcl:ICR mice [3]; 125 mg/kg oral,7.8 ± 0.23 ^+ µmol/L
same,TP,male Jcl:ICR mice [3]; 125 mg/kg oral,56.6 ± 4.2 ^+ g/L
same,UA,male Jcl:ICR mice [3]; 125 mg/kg oral,199 ± 14.6 µmol/L
same,UREA,male Jcl:ICR mice [3]; 125 mg/kg oral,8.7 ± 0.26 ^+ mmol/L
same,ALAT,male Jcl:ICR mice [3]; 250 mg/kg oral,71.2 ± 1.9 *^+ U/L
same,ALB,male Jcl:ICR mice [3]; 250 mg/kg oral,28.2 ± 2.8 g/L
same,ASAT,male Jcl:ICR mice [3]; 250 mg/kg oral,110 ± 3.1 U/L
same,CREAT,male Jcl:ICR mice [3]; 250 mg/kg oral,92.2 ± 4.4 ^+ µmol/L
same,D-Bil,male Jcl:ICR mice [3]; 250 mg/kg oral,3.8 ± 0.42 ^+ µmol/L
same,GLU,male Jcl:ICR mice [3]; 250 mg/kg oral,7.0 ± 0.16 mmol/L
same,T-Bil,male Jcl:ICR mice [3]; 250 mg/kg oral,8.1 ± 0.32 ^+ µmol/L
same,TP,male Jcl:ICR mice [3]; 250 mg/kg oral,52.2 ± 5.1 ^+ g/L
same,UA,male Jcl:ICR mice [3]; 250 mg/kg oral,201.3 ± 12 µmol/L
same,UREA,male Jcl:ICR mice [3]; 250 mg/kg oral,8.4 ± 0.23 ^+ mmol/L
same,level of GSH in liver homogenate,[4],did not significantly increase the level of GSH
same,Lethality,female Jcl:ICR mice [5]; 500 mg/kg b.w.,0/3
same,Lethality,female Jcl:ICR mice [5]; 1000 mg/kg b.w.,0/3
same,Lethality,female Jcl:ICR mice [5]; 1500 mg/kg b.w.,0/3
same,Lethality,female Jcl:ICR mice [5]; 2000 mg/kg b.w.,0/3
same,Symptoms before Death Occur,female Jcl:ICR mice [5]; 3000 mg/kg b.w.,"Impaired coordination, rapid breathing, clonic seizures, death"
same,Time of Occurrence of Fatal Outcome,female Jcl:ICR mice [5]; 3000 mg/kg b.w.,After 3 h
same,"ABTS Scavenging, IC50",ABTS•+ assay,40.35 * mg/mL
same,Body weight gain compared to the beginning of the experimental period,male Jcl:ICR mice [7],44%
same,MIC,[8]; ref [22],0.4412 µM
same,activity of GPx in liver,[9],restored the control values of GPx; also recorded: did not statistically significantly alter
same,"DPPH Scavenging, IC50",DPPH assay,18.69 * mg/mL
same,IC50,HEK-293T,280 µM
